Data taken from patent publication US7927790B2, “Suppression of HIV-1 replication via inhibition of human flap endonuclease-1-mediated HIV-1 central DNA flap processing” (priority 2005, dated 2011).
Entries after “also recorded” stand apart in the source; their conditions may differ.

How the values were obtained:
[1] = tested on: HIV-1 strain NL4-3 and III B; assay: HIV-1 replication in CEM T-cells over-expressing FEN-1 or D181A, secreted p24; format: cell-based
Method: In order to test the effects of FEN-1 function on HIV replication in its natural host cells, human T-cells, the CEM cells with the same construct shown in FIG. 4A were transfected under selection of G418. CEM cells (C), CEM cells expressing the c-myc-tagged hFEN-1 (F), or D181A mutant (A) were seeded at 0.5×10^4 cells per well in a 12-well plate. Duplicate plates were prepared for each cell line. The cells were challenged with two HIV-1 strains: NL4-3 and III B. Virus challenge proceeded at both 50 TCID50 and 5 TCID50. The cell culture supernatants were collected and the HIV-1 p24 was measured weekly for four weeks post-infection.
HIV-1 replication in CEM cells. CEM cells, or CEM cells infected with the hFEN-1 or D181A retroviral vector, were seeded at 0.5×10^4 cells per well of a 12-well plate. Duplicate plates were prepared for each cell line. The cells were challenged with HIV-1 strain NL4-3 and III B. Viral challenge was conducted at both 50 TCID50. Cell culture supernatants were collected and the HIV-1 p24 was measured weekly for four weeks post-infection. Syncytium formation due to the HIV-1 infection was monitored, and cells were photographed under a microscope weekly (FIGS. 6-7).

FEN-1 = FEN-1 (Homo sapiens, UniProt P39748); assay: FEN-1 nuclease assay with HIV CDF and regular 5′ flap model substrates; format: biochemical
Sequence of FEN-1 (P39748 whole entry): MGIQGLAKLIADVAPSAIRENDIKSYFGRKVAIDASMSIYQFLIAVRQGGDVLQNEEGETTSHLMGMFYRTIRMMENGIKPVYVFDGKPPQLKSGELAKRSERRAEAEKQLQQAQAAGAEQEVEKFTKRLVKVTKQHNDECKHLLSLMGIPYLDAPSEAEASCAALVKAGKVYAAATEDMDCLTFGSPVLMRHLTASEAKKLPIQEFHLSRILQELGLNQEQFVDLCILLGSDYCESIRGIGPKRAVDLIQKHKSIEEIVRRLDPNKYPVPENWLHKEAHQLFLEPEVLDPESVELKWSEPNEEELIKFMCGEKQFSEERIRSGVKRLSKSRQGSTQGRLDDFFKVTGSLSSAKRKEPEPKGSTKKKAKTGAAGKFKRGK
Method: 0.25 or 0.5 pmol of purified recombinant FEN-1 were mixed with 1 pmol of regular 5′ flap substrate with a 3′ flap of single nucleotide or HIV CDF substrate, respectively in the presence of 0, 0.1, 0.2, 0.4, 0.6, 0.8, and 1.0 mM pentamidine isethionate salt. The reaction was carried out at 37° C. for 30 minutes. Substrates and products were analyzed with DNA sequencing PAGE and visualized with radio-autograph (upper panel). The amount of cleavage products and non-cleaved substrates were quantified with ImagineQuant and were shown in the bottom panel.
One pmol of HIV CDF substrate were mixed with 0, 0.01, 0.1, 1, and 3 pmol of purified recombinant FEN-1 in the absence or presence of 0.4 mM pentamidine isethionate salt. The reaction was carried out at 37° C. for 30 minutes. Substrates and products were analyzed with DNA sequencing PAGE and visualized with radio-autograph (upper panel). The amount of cleavage product and non-cleaved substrate were quantified with ImagineQuant and were shown in the bottom panel.
FIG. 12 is a graph line and chart showing kinetic analysis of FEN-1 cleavage of HIV CDF substrates in the absence and presence of pentamidine. 1 pmol of FEN-1 was incubated with 0, 0.125, 0.25, 0.375, 0.5, 1, and 2 pmol of HIV CDF substrates. The reaction were carried out at 37° C. for 10 min. The amount of cleavage product and non-cleaved substrate were quantified with ImagineQuant. The Michaelis-Menten kinetic parameters Km and Kcat (Bottom panel) were calculated with double-reciprocal plots of 1/v versus 1/[s] (Upper panel).
Nuclease assays. DNA model substrates were prepared as previously described (Zheng 2005). FEN-1 nuclease and/or D181A mutant was incubated with 1 pmol of indicated DNA substrates at 30° C. for 15 minutes. DNA substrates and products were separated in DNA sequencing PAGE and visualized with autoradiography.
Finally, the third criteria is in vitro inhibition of HIV-CDF processing. The inhibition of FEN-1 cleavage of HIV-CDF and regular 5′ flap structures by molecules selected after criteria 2 are examined in this test. Only the molecules that inhibit FEN-1 cleavage of HIV-CDF but not the regular 5′ flap structures are qualified for in vivo studies. The inhibition efficacy of HIV replication in H9 and CEM T cell lines by small molecules is determined with the HIV reverse transcriptase inhibitor AZT used as an inhibition control.

HIV-1 cDNA integration = assay: HIV-1 integration assay, Southern blot hybridization of host genomic DNA; format: cell-based; details: expression in HeLa cells
Method: To further validate that inhibition of FEN-1 nuclease activity reduced HIV-1 cDNA integration, genomic DNA was isolated and the integration of viral cDNA into the host genome was detected by Southern blot hybridization. […] Both of the experiments indicate that the integration of HIV may be impaired under a FEN-1 deficient background.
HIV-1 integration assay. Genomic DNA was isolated from HIV-1 infected cells according to a previous protocol (Chen 1998). 20 μg of DNA was digested with EcoRV and BamHI and resolved on a native agarose gel. A 0.8 kb of HIV-1 specific DNA fragment, released by digestion of HIV cDNA with BamHI and BgIII, was used as a probe in Southern blot hybridization.

HIV-1 vector HXB2-Hyg = assay: HIV-1 infection colony assay (hygromycin-resistant colonies) in HeLa CD4+ cells; format: cell-based; details: compared to control HeLa CD4+ cells
Method: The cells are infected with a modified HIV-1 virus. Upon integration, the infected cells become hygromycin-resistant due to the expression of the drug-resistant gene from the proviral DNA. The integration efficiency is then determined by counting the colonies selected on Hygromycin B. The integration is confirmed by LTR-Tag assay.
A modified HIV-1 virus vector derived from strain HXB2 (HXB2-Hyg) with a newly created Bpm I site near the end of the U5 region in its 5′ LTR is prepared. This virus genome also contains a hygromycin-resistant gene for selecting virus-infected cells. This VSV-G pseudotyped virus is used to infect LaD cells along with LaF and LaP cells with m.o.i. of 1.0. The infected cells are cultured in a medium containing 200 μg/ml of Hygromycin B for 2 weeks. The virus-infected cells with the stable integrated provirus are hygromycin-resistant and grow into colonies. The colonies are stained with 0.2% crystal violet in 10% phosphate-buffered formalin (pH 7.0) and counted.
An LTR-Tag analysis method is used to detect HIV integration. […] For this reason, there are many fewer ^32P-labeled LTR-Tags prepared from the D181A overexpressing LaD cells in comparison to the radioactivity-labeled LTR-Tags prepared from the LaP cells. […]
HIV-1 infection colony assay. […] Hygromycin-resistant colonies were stained with 0.2% crystal violet in 70% ethanol, and the number of colonies was counted.

HIV IIIB virus = assay: Antiviral challenge assay, HIV IIIB replication in H9 or CEM cells, p24; format: cell-based, HIV-1; details: for inhibition of HIV replication (p24) / suppression of HIV replication (p24): HIV IIIB, 7 days; for inhibition of HIV replication (p24): 10 μM AZT; for suppression of HIV replication (p24): 15 μM pentamidine
Method: H9 cells or CEM cells were challenged with HIV IIIB virus in the absence (PC) or presence of 15 μM pentamidine (PTD) or 10 μM AZT. Cells were grown for 7 days and the concentration of p24 were determined and the inhibition percentage were calculated. FIG. 13B: H9 cells or CEM cells were challenged with HIV IIIB virus in the absence or presence of varying concentration of pentamidine (PTD) or AZT. Cells were grown for 7 days and the concentration of p24 were determined.
The next experiment examined whether pentamidine could inhibit HIV replication in vivo. The H9 cells and CEM cells were challenged with HIV IIIB virus in the absence or presence of 15 μM pentamidine or 10 μM AZT, a HIV reverse transcriptase inhibitor.
Antiviral challenge assays using infectious laboratory and other HIV-1 strains: Appropriate cells, screened for viability and growth kinetics, are challenged with HIV-1 strain IIIB, NL4-3, JRFL or primary isolates. This is a modification of a standard method described by Ho (Ho 1991) for virus neutralization. The resultant inoculum is titrated by ID50 in uninfected CEM, H9 or PBMC cultures. 0.01 MOI HIV is inoculated onto 10^6 candidate cells for six hours at 37° C., and then washed three times with PBS. For screening assays, each cell culture supernatant is examined on day seven post infection and examined for reverse transcriptase activity or p24 concentration. For confirmation assays, cultures are followed for day 7, 14, 21 and 28 observations. Cells are fed twice weekly by removing one-half of the media. Viral inhibition is defined >50% reduction in RT activity or p24 compared with control culture, which were mock-treated.

[2] = in the presence of 400 μM of pentamidine

“D181A: dominant negative point mutant of human FEN-1, binds flap DNA but deficient in catalysis and nuclear localization” was tested. Which “HIV-1 replication suppressed, secreted HIV p24 protein concentrations” value ([1]; stable T-cell lines over-expressing the mutant) did it give?
The value was “more than 99.9%”.

And the “HIV inhibition, culture supernatant p24” value ([1]; transduced CEM cells, HIVIIIB and HIVNL4-3, weekly for four weeks)?
The value was “strong HIV inhibition”.

And the “inhibition of wild type FEN-1 flap endonuclease activity in vitro” value (FEN-1; HIV CDF substrate, mutant 8-10 folds higher than wild type protein concentration)?
The value was “almost completely inhibit”.

What about the “inhibition of FEN-1 activity with d-flap substrates” value (FEN-1; d-flap substrates, model for host cell RNA primer removal) of the same compound?
The value was “does not inhibit”.

What about the “HIV-1 cDNA integration into host genome” value (HIV-1 cDNA integration) of the same compound?
Its value is “significantly decreased”.

What about the “decrease of HIV-1 integration, hygromycin-resistant CFUs” value (HIV-1 vector HXB2-Hyg) of the same compound?
Its value is “more than 95 % CFUs”.

Which results are given for `Cc1cn([C@H]2C[C@H](N=[N+]=[N-])[C@@H](CO)O2)c(=O)[nH]c1=O` [AZT]?
inhibition of HIV replication (p24) (HIV IIIB virus; CEM cells): 98.6%; inhibition of HIV replication (p24) (HIV IIIB virus; H9 cells): 100%

Which results are given for `N=C(N)c1ccc(OCCCCCOc2ccc(C(=N)N)cc2)cc1` [pentamidine]?
suppression of HIV replication (p24) (HIV IIIB virus; CEM cells): 69.3%; suppression of HIV replication (p24) (HIV IIIB virus; H9 cells): 98.8%; inhibitory effect on HIV replication compared with AZT (HIV IIIB virus; T-cell lines): equal to or more effective than AZT; also recorded: equivalent to AZT; inhibitory effect on HIV-1 replication relative to AZT (HIV IIIB virus; another T-cell line): about 70 % that of AZT; effect on FEN-1 cleavage of regular 5′ flap structures resembling RNA-DNA primers (FEN-1): little effect; effect on kcat and Km of FEN-1 cleavage of HIV CDF substrates (FEN-1; Michaelis-Menten, double-reciprocal plots, 37° C., 10 min): decrease; cleavage of both HIV CDF and regular 5′ flap substrates (FEN-1; concentrations higher than 1 mM): completely inhibited; FEN-1's activity cleaving regular 5′ flap substrates retained (FEN-1; [2]): greater than 80%; FEN-1 cleavage of HIV CDF structures suppressed (FEN-1; [2]): 90%
